Results on 2 molecules are retold here after patent publication US20120100067A1, “Solubilisation Method” (MEDIGENE AG, priority 2008, published 2012).

Data set [1] in a line: Solubilisation of Camptothecin by DOTAP/DOPC liposomes, UV/Vis at 369 nm. The note with it: for concentration of solubilized Camptothecin: 10% trehalose. The data set is classed as physicochemical. On the procedure: Treated and untreated liposomal formulations were exposed to Camptothecin as described for Paclitaxel in Example 2.1. The concentration of solubilized Camptothecin was determined by UV/Vis-spectroscopy (Beckmann DU 640, Beckmann Coulter, Germany) at 369 nm after dilution in methanol.

A short description of data set [2]: Solubilisation of dry Paclitaxel by empty liposomes, filtration, HPLC quantification.
Experimental: The Agilent 1100 Series HPLC System (Agilent Technologies, Palo Alto, Calif., USA) consisted of a quaternary pump, an autosampler, a column thermostat and an on-line degasser. A LiChrospher 60 RP (5 μm, 4×250 mm) analytical column (Merck, Darmstadt, Germany) was used. The flow rate of the mobile phase, consisting of 32% (v/v) acetonitrile, 12% tetrahydrofuran and 56% ammoniumacetat (2 mM in water, pH value set to 4.8 with acetic acid) was set at 1 ml/min.
For data set [3] the following is noted: cited from earlier work.

Molecules are shown by their SMILES.

For the molecule `CC[C@@]1(O)C(=O)OCc2c1cc1n(c2=O)Cc2cc3ccccc3nc2-1` [Camptothecin], the “enhancement of concentration of solubilized agent, pre-treated versus untreated (factor)” value in data set [1] (DOTAP/DOPC 50/50 10 mM) is “factor of about three”. Further, the figures for the “concentration of solubilized Camptothecin” value in data set [1] (pre-treated DOTAP/DOPC 50/50 10 mM) and in data set [1] (untreated DOTAP/DOPC 50/50 10 mM) were 52 µM and 18 µM, respectively.
`CC(=O)O[C@H]1C(=O)[C@@]2(C)[C@H]([C@H](OC(=O)c3ccccc3)[C@]3(O)C[C@H](OC(=O)[C@H](O)[C@@H](NC(=O)c4ccccc4)c4ccccc4)C(C)=C1C3(C)C)[C@]1(OC(C)=O)CO[C@@H]1C[C@@H]2O` [Paclitaxel]: the “expected amount of solubilised Paclitaxel” value in data set [2] (100 mM liposome preparation, freeze/thaw treated, extrapolated from solubilisation factor) is on record as 4 mM. The “loading capacity of single-lipid liposomes after freezing/thawing” value in data set [2] (100% DOTAP and 100% DOPC liposomes, 10 mM) was “improved”. The “solubility of Paclitaxel in liposomal preparations versus liquid formulation without pre-treatment” value in data set [2] (DOTAP/DOPC 50/50 10 mM, spray dried, spray freeze-dried, freeze-dried, frozen) is “elevated”. Besides, in data set [2] (DOTAP/DOPC 50/50, at a given lipid concentration), the “amount of solubilised Paclitaxel, freeze/thawed versus untreated (factor)” value was “about a factor of four higher”. Besides, the “concentration of solubilised Paclitaxel (maximum obtained)” value in data set [2] (DOTAP/DOPC 50/50 liposomes, 10-35 mM lipid, 10% trehalose, after freezing/thawing, 3 h) is recorded as “up to 1600 μM”. The “loading capacity, treated versus untreated lipid dispersions (factor)” value in data set [2] (DOTAP/DOPC mixtures 25/75, 50/50, 75/25, 10 mM lipid, freeze/thaw) is recorded as “about a factor of four higher”. Further, the “loading capacity of binary lipid mixtures after freeze/thawing” value in data set [2] (DOTAP/DOPC, DOTAP/DSPC, DSTAP/DSPC 50/50) is “substantially improved”. Besides, the “improvement of loading capacity, untreated versus treated liposomes (factor)” value in data set [2] (DOTAP/DSPC 50/50 liposomes, freeze/thaw) is given as 5. In addition, the “loading at 15 min incubation compared with 3 hour incubation” value in data set [2] (freeze-dried, rehydrated DOTAP/DOPC 50/50 liposomes) is recorded as “not lower”. In data set [2] (per 1 mM of untreated DOTAP/DOPC), the “solubilised concentration of Paclitaxel” value was 10 µM. Also, the “solubility of paclitaxel in a corresponding aqueous buffer” value in data set [3] (aqueous buffer without liposomes) was “below 1 μM”. In addition, the “solubility of paclitaxel in water” value in data set [3] (water) is “below 1 μg/ml”.
